Counter-ions that a name gives are not always drawn.
Key:
[1] = tested on: conditioned avoidance response; test: conditioned avoidance response test (CAR), neuroleptic action; assay type: in vivo; conditions: intraperitoneal, mg per kg body weight; for ED50: ip, read-out: CAR, ED50 (dose which caused a 50% failure in avoidance response)
[2] = tested on: tremorine-induced tremors in mice; test: antagonism of tremorine-induced tremors (ITIT), lack of cataleptic activity; assay type: in vivo; conditions: intraperitoneal, mg per kg body weight; for ED50: Mus musculus, ip, read-out: ITIT, ED50 (dose which caused a 50% inhibition of tremorine induced tremors)
[3] = Sayers and Amsler 1977; cited from earlier work

Row | Structure (SMILES) | CAR, ED50 (dose which caused a 50% failure in avoidance response) [1] | ITIT, ED50 (dose which caused a 50% inhibition of tremorine induced tremors) [2] | ED50 [1] | ED50 [2] | neuroleptic action without the extrapyramidal side effects (in words) [3]
1 | Br.CC[C@H]1c2c(O)c(O)cc3c2[C@H](CN1C)c1ccccc1CC3 (relative stereo) [Example 23, (3,12b-trans)-3-ethyl-2-methyl-1,2,3,7,8,12b-hexahydrobenzo[6,7]cyclohepta[1,2,3-de]isoquinoline-4,5-diol hydrobromide] | 1.5 ± 0.4 mg/kg, i.p. | 18 ± 7.6 mg/kg, i.p. | – | – | –
2 | CC[C@H]1c2cc(O)c(O)c3c2[C@@H](CN1C)c1ccccc1CC3 (relative stereo) [Example 32, (3,12b-trans)-3-ethyl-2-methyl-1,2,3,7,8,12b-hexahydrobenzo[6,7]-cyclohepta[1,2,3-de]isoquinoline-5,6-diol hydrobromide] | – | – | 4.2 ± 0.4 mg/kg | 21 ± 1.6 mg/kg | –
3 | CN1C[C@H]2c3ccccc3CCc3c(O)c(O)cc(c32)[C@@H]1Cc1ccccc1 (relative stereo) [Example 33, (3,12b-trans)-2-methyl-3-(phenylmethyl)-1,2,3,7,8,12b-hexahydrobenzo[6,7]-cyclohepta[1,2,3-de]isoquinoline-5,6-diol hydrobromide] | – | – | 2 ± 0.2 mg/kg | 9.2 ± 7.2 mg/kg | –
4 | CC[C@H]1c2c(O)c(OC)cc3c2[C@@H](CN1C)c1ccccc1CC3 (relative stereo) [Example 44, (3,12b-trans)-3-ethyl-5-methoxy-2-methyl-1,2,3,7,8,12b-hexahydrobenzo[6,7]-cyclohepta[1,2,3-de]isoquinolin-4-ol] | 3.0 ± 0.8 mg/kg, i.p. | 6.8 ± 2.0 mg/kg, i.p. | – | – | –
5 | Br.CC1c2c(O)c(O)cc3c2C(CN1C)c1ccccc1CC3 (stereo not drawn) [Example 22, (3,12b-trans)-2,3-dimethyl-1,2,3,7,8,12b-hexahydrobenzo[6,7]cyclohepta[1,2,3-de]isoquinoline-4,5-diol hydrobromide] | 4.4 ± 2.0 mg/kg, i.p. | 13 ± 10.4 mg/kg, i.p. | – | – | –
6 | Br.CCCC1c2c(O)c(O)cc3c2C(CN1C)c1ccccc1CC3 (stereo not drawn) [Example 24, (3,12b-trans)-2-methyl-3-propyl-1,2,3,7,8,12b-hexahydrobenzo[6,7]cyclohepta[1,2,3-de]isoquinoline-4,5-diol hydrobromide] | 4.4 ± 1.4 mg/kg, i.p. | 11 ± 4.3 mg/kg, i.p. | – | – | –
7 | Br.CC(C)C1c2c(O)c(O)cc3c2C(CN1C)c1ccccc1CC3 (stereo not drawn) [Example 25, (3,12b-trans)-2-methyl-3-(1-methylethyl)-1,2,3,7,8,12b-hexahydrobenzo[6,7]cyclohepta[1,2,3-de]isoquinoline-4,5-diol hydrobromide] | 2.4 ± 0.6 mg/kg, i.p. | 17.5 ± 6.0 mg/kg, i.p. | – | – | –
8 | Br.CN1CC2c3ccccc3CCc3cc(O)c(O)c(c32)C1Cc1ccccc1 (stereo not drawn) [Example 26, (3,12b-trans)-2-metyl-3-(phenylmethyl)-1,2,3,7,8,12b-hexahydrobenzo[6,7]cyclohepta[1,2,3-de]isoquinoline-4,5-diol hydrobromide] | 1.6 ± 0.3 mg/kg, i.p. | 22 ± 5.7 mg/kg, i.p. | – | – | –
9 | COc1cc2c3c(c1O)C(Cc1ccccc1)N(C)CC3c1ccccc1CC2 (stereo not drawn) [Example 37, (3,12b-trans)-5-Methoxy-2-methyl-3-(phenylmethyl)-1,2,3,7,8,12b-hexahydrobenzo[6,7]-cyclohepta[1,2,3-de]isoquinolin-4-ol] | 5.4 ± 1.8 mg/kg, i.p. | 8.2 ± 2.4 mg/kg, i.p. | – | – | –
10 | CN1CCN(C2=Nc3cc(Cl)ccc3Nc3ccccc32)CC1 [clozapine] | – | – | – | – | have shown this unusual pharmacological profile
